Data on 9 molecules can be found in PubChem BioAssay AID258 (DTP/NCI, 2004).

The structures appear in SMILES notation. Where “and” joins values, the source holds several entries; their conditions need not be identical. Equal values may be shown once. Inconclusive results and toxic doses are left out.

The experiment has as its system CD2F1 mice, L1210 leukemia sc, survival T/C. Put plainly: NCI In Vivo Anticancer Drug Screen. Data for tumor model L1210 Leukemia (subcutaneous) in CD2F1 (CDF1) mice. Particulars: endpoint: median survival time, higher = longer survival. The gist of the method:
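Antitumor activity is scored in tumor-bearing mice by comparing survival or tumor size of treated animals against vehicle-treated controls, reported as T/C.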

Where [1] appears, read: dose: 12.5 mg/kg/injection, schedule: Q01DX009 (ip), vehicle: Klucel (hydroxypropylcellulose) (HPC).
Where [2] appears, read: dose: 180.0 mg/kg/injection, schedule: Q01DX Z (sc), vehicle: water.

In the case of `COc1ccc2[nH]c3ccc4cc[n+](CCN5CCC(C6CCN(CC[n+]7ccc8ccc9[nH]c%10ccc(OC)cc%10c9c8c7)CC6)CC5)cc4c3c2c1`, the T/C was 104 % of control (dose: 6.9 mg/kg/injection, schedule: Q01DX009 (ip), vehicle: water); 107 % of control (dose: 11.5 mg/kg/injection, schedule: Q01DX009 (ip), vehicle: water); 204 % of control and 93 % of control under setting [1]; 107 % of control (dose: 32.0 mg/kg/injection, schedule: Q01DX009 (ip), vehicle: water); 340 % of control (dose: 50.0 mg/kg/injection, schedule: Q01DX009 (ip), vehicle: Klucel (hydroxypropylcellulose) (HPC)).

Consider `O=C(Nc1cccc(C2=NCCN2)c1)c1ccc(-c2ccc(C(=O)Nc3cccc(C4=NCCN4)c3)cc2)cc1`, for which the T/C reads like this: (dose: 23.0 mg/kg/injection, schedule: Q01DX Z (sc), vehicle: water) 110 % of control; (dose: 39.0 mg/kg/injection, schedule: Q01DX Z (sc), vehicle: water) 105 % of control; (dose: 65.0 mg/kg/injection, schedule: Q01DX Z (sc), vehicle: water) 100 % of control; (dose: 108.0 mg/kg/injection, schedule: Q01DX Z (sc), vehicle: water) 105 % of control; under setting [2], 100 % of control.

Regarding `C[C@]12CCC(=O)C=C1CC[C@@H]1[C@@H]2[C@@H](O)C[C@@]2(C)[C@H]1CC[C@]2(O)C(=O)CO`, under “dose: 300.0 mg/kg/injection, schedule: Q01DX Z (sc), vehicle: methylcellulose (MC)”, the T/C is 115 % of control.

In the case of `Nc1ncnc2c1ncn2C(C=O)OC(C=O)CO` (configuration not stated), the T/C reads like this: (dose: 14.0 mg/kg/injection, schedule: Q01DX Z (sc), vehicle: carboxymethylcellulose (CMC)) 100 % of control; (dose: 23.0 mg/kg/injection, schedule: Q01DX Z (sc), vehicle: carboxymethylcellulose (CMC)) 105 % of control; (dose: 39.0 mg/kg/injection, schedule: Q01DX Z (sc), vehicle: carboxymethylcellulose (CMC)) 100 % of control; (dose: 108.0 mg/kg/injection, schedule: Q01DX Z (sc), vehicle: carboxymethylcellulose (CMC)) 111 % of control; (dose: 180.0 mg/kg/injection, schedule: Q01DX Z (sc), vehicle: carboxymethylcellulose (CMC)) 100 % of control.

For the molecule `NCCCN=c1ccc2c3c1c(O)c1c(O)ccc(=O)c1c3[nH]n2CCNCCO`, the T/C was 118 % of control (dose: 0.8 mg/kg/injection, schedule: Q03HX024 (ip), vehicle: saline); 161 % of control (dose: 2.2 mg/kg/injection, schedule: Q03HX024 (ip), vehicle: saline); 124 % of control (dose: 2.34 mg/kg/injection, schedule: Q03HX008 (ip), vehicle: saline); 114 % of control (dose: 3.46 mg/kg/injection, schedule: Q01DX009 (ip), vehicle: water); 212 % of control (dose: 3.6 mg/kg/injection, schedule: Q03HX024 (ip), vehicle: saline); 121 % of control (dose: 3.7 mg/kg/injection, schedule: Q01DX005 (ip), vehicle: saline). For the same molecule, the T/C is 115 % of control (dose: 3.7 mg/kg/injection, schedule: Q04DX003 (ip), vehicle: saline); 121 % of control (dose: 5.7 mg/kg/injection, schedule: Q01DX009 (ip), vehicle: water); 110 % of control (dose: 6.2 mg/kg/injection, schedule: Q04DX003 (ip), vehicle: saline); 175 % of control (dose: 6.4 mg/kg/injection, schedule: Q03HX008 (ip), vehicle: saline); 207 % of control (dose: 9.6 mg/kg/injection, schedule: Q01DX009 (ip), vehicle: saline); 182 % of control (dose: 10.4 mg/kg/injection, schedule: Q01DX005 (ip), vehicle: saline). The T/C reads like this: (dose: 10.4 mg/kg/injection, schedule: Q03HX008 (ip), vehicle: saline) 86 % of control; (dose: 11.2 mg/kg/injection, schedule: Q01DX001 (ip), vehicle: saline) 120 % of control; (dose: 16.0 mg/kg/injection, schedule: Q01DX009 (ip), vehicle: saline) 121 % of control; (dose: 16.0 mg/kg/injection, schedule: Q01DX009 (ip), vehicle: water) 208 % of control; (dose: 17.3 mg/kg/injection, schedule: Q01DX005 (ip), vehicle: saline) 215 % of control; (dose: 17.3 mg/kg/injection, schedule: Q04DX003 (ip), vehicle: saline) 153 % of control. Besides, the T/C reads like this: (dose: 18.7 mg/kg/injection, schedule: Q01DX001 (ip), vehicle: saline) 119 % of control; (dose: 26.7 mg/kg/injection, schedule: Q01DX009 (ip), vehicle: saline) 95 % of control; (dose: 26.7 mg/kg/injection, schedule: Q01DX009 (ip), vehicle: water) 96 % of control; (dose: 28.8 mg/kg/injection, schedule: Q01DX005 (ip), vehicle: saline) 107 % of control; (dose: 28.8 mg/kg/injection, schedule: Q04DX003 (ip), vehicle: saline) 182 % of control; (dose: 48.0 mg/kg/injection, schedule: Q04DX003 (ip), vehicle: saline) 268 % of control. Besides, the T/C by setting is: (dose: 51.3 mg/kg/injection, schedule: Q01DX001 (ip), vehicle: saline) 153 % of control; (dose: 80.0 mg/kg/injection, schedule: Q04DX003 (ip), vehicle: saline) 118 % of control; (dose: 86.4 mg/kg/injection, schedule: Q01DX001 (ip), vehicle: saline) 225 % of control.

As to `Nc1c(/C=C/c2cc3cc(C4=NCCN4)ccc3o2)[nH]c2cc(C3=NCCN3)ccc12`, the T/C is, setting by setting: (dose: 3.12 mg/kg/injection, schedule: Q01DX009 (ip), vehicle: Klucel (hydroxypropylcellulose) (HPC)) 100 % of control; (dose: 6.25 mg/kg/injection, schedule: Q01DX009 (ip), vehicle: Klucel (hydroxypropylcellulose) (HPC)) 100 % of control; under setting [1], 96 % of control; (dose: 25.0 mg/kg/injection, schedule: Q01DX009 (ip), vehicle: Klucel (hydroxypropylcellulose) (HPC)) 106 % of control.

In the case of `NCCCNCCCCNC(=O)C(O)NC(=O)CC(O)CCCCN=C(N)N` (configuration not stated), the T/C was 156 % of control (dose: 3.0 mg/kg/injection, schedule: Q01DX009 (ip), vehicle: saline); 168 % of control (dose: 6.0 mg/kg/injection, schedule: Q01DX009 (ip), vehicle: saline); 163 % of control (dose: 6.25 mg/kg/injection, schedule: Q01DX009 (ip), vehicle: saline); 196 % of control (dose: 12.0 mg/kg/injection, schedule: Q01DX009 (ip), vehicle: saline); 184 % of control (dose: 12.5 mg/kg/injection, schedule: Q01DX009 (ip), vehicle: saline); 208 % of control and 210 % of control (dose: 25.0 mg/kg/injection, schedule: Q01DX009 (ip), vehicle: saline). Besides, the T/C reads like this: (dose: 50.0 mg/kg/injection, schedule: Q01DX009 (ip), vehicle: saline) 198 % of control and 216 % of control; (dose: 100.0 mg/kg/injection, schedule: Q01DX009 (ip), vehicle: saline) 220 % of control.

For the molecule `CC[C@@]1(O)C(=O)OCc2c1cc1n(c2=O)Cc2cc3ccccc3nc2-1`, the T/C runs as follows: (dose: 0.13 mg/kg/injection, schedule: Q01DX Z (sc), vehicle: carboxymethylcellulose (CMC)) 111 % of control; (dose: 0.22 mg/kg/injection, schedule: Q01DX Z (sc), vehicle: carboxymethylcellulose (CMC)) 111 % of control; (dose: 0.6 mg/kg/injection, schedule: Q01DX Z (sc), vehicle: carboxymethylcellulose (CMC)) 111 % of control; (dose: 1.0 mg/kg/injection, schedule: Q01DX Z (sc), vehicle: carboxymethylcellulose (CMC)) 122 % of control.

For `C[C@]12C=CC(=O)C=C1CC[C@@H]1[C@@H]2C(=O)C[C@@]2(C)[C@H]1CC[C@]2(O)C(=O)CO`, the T/C is 122 % of control under setting [2]; 154 % of control (dose: 180.0 mg/kg/injection, schedule: Q02DX Z (sc), vehicle: water); 122 % of control (dose: 500.0 mg/kg/injection, schedule: Q#A X Z (sc), vehicle: water).
